Results reported in ChEMBL document CHEMBL5038640, “Natural Berberine-derived Azolyl Ethanols as New Structural Antibacterial Agents against Drug-Resistant Escherichia coli” (J Med Chem, 2022).

Tests used:
Staphylococcus aureus [1] = assay: Antibacterial activity against methicillin-resistant Staphylococcus aureus N315 assessed as decrease in bacterial growth incubated for 18 hrs by broth microdilution method; type: functional
Enterococcus faecalis = assay: Antibacterial activity against Enterococcus faecalis assessed as decrease in bacterial growth incubated for 18 hrs by broth microdilution method; type: functional
Staphylococcus aureus [2] = assay: Antibacterial activity against Staphylococcus aureus assessed as decrease in bacterial growth incubated for 18 hrs by broth microdilution method; type: functional
Staphylococcus aureus [3] = assay: Antibacterial activity against Staphylococcus aureus ATCC 25923 assessed as decrease in bacterial growth incubated for 18 hrs by broth microdilution method; type: functional
Staphylococcus aureus [4] = assay: Antibacterial activity against Staphylococcus aureus ATCC 29213 assessed as decrease in bacterial growth incubated for 18 hrs by broth microdilution method; type: functional
Klebsiella pneumoniae = assay: Antibacterial activity against Klebsiella pneumoniae assessed as decrease in bacterial growth incubated for 18 hrs by broth microdilution method; type: functional
Escherichia coli [5] = assay: Antibacterial activity against Escherichia coli assessed as decrease in bacterial growth incubated for 18 hrs by broth microdilution method; type: functional
Pseudomonas aeruginosa [6] = assay: Antibacterial activity against Pseudomonas aeruginosa assessed as decrease in bacterial growth incubated for 18 hrs by broth microdilution method; type: functional
Acinetobacter baumannii = assay: Antibacterial activity against Acinetobacter baumannii assessed as decrease in bacterial growth incubated for 18 hrs by broth microdilution method; type: functional
Pseudomonas aeruginosa [7] = assay: Antibacterial activity against Pseudomonas aeruginosa ATCC 27853 assessed as decrease in bacterial growth incubated for 18 hrs by broth microdilution method; type: functional
Escherichia coli [8] = assay: Antibacterial activity against Escherichia coli ATCC 25922 assessed as decrease in bacterial growth incubated for 18 hrs by broth microdilution method; type: functional
[9] = Aqueous solubility of the compound in saline; type: physicochemical

Structure (SMILES): CCN(CCO)CC(O)COc1c(OC)ccc2cc3[n+](cc12)CCc1cc2c(cc1-3)OCO2.[Br-] (centres undefined)
- MIC (Staphylococcus aureus [1]): 468 µM
- MIC (Enterococcus faecalis): 468 µM
- MIC (Staphylococcus aureus [2]): 468 µM
- MIC (Staphylococcus aureus [3]): 468 µM
- MIC (Staphylococcus aureus [4]): 234 µM
- MIC (Klebsiella pneumoniae): 468 µM
- MIC (Escherichia coli [5]): 234 µM
- MIC (Pseudomonas aeruginosa [6]): 468 µM
- MIC (Acinetobacter baumannii): 468 µM
- MIC (Pseudomonas aeruginosa [7]): 468 µM
- MIC (Escherichia coli [8]): 234 µM
- solubility [9]: 3720 µM

Structure (SMILES): COc1ccc2cc3[n+](cc2c1OCC(O)CSc1nnc(C)s1)CCc1cc2c(cc1-3)OCO2.[Br-] (centres undefined)
- MIC (Staphylococcus aureus [1]): 108 µM
- MIC (Enterococcus faecalis): 108 µM
- MIC (Staphylococcus aureus [2]): 108 µM
- MIC (Staphylococcus aureus [3]): 108 µM
- MIC (Staphylococcus aureus [4]): 108 µM
- MIC (Klebsiella pneumoniae): 108 µM
- MIC (Escherichia coli [5]): 108 µM
- MIC (Pseudomonas aeruginosa [6]): 108 µM
- MIC (Acinetobacter baumannii): 108 µM
- MIC (Pseudomonas aeruginosa [7]): 108 µM
- MIC (Escherichia coli [8]): 108 µM
- solubility [9]: 1180 µM

Structure (SMILES): COc1ccc2cc3[n+](cc2c1OCC(O)CN1CCCC1)CCc1cc2c(cc1-3)OCO2.[Br-] (centres undefined)
- MIC (Staphylococcus aureus [1]): 121 µM
- MIC (Enterococcus faecalis): 121 µM
- MIC (Staphylococcus aureus [2]): 60 µM
- MIC (Staphylococcus aureus [3]): 121 µM
- MIC (Staphylococcus aureus [4]): 121 µM
- MIC (Klebsiella pneumoniae): 242 µM
- MIC (Escherichia coli [5]): 242 µM
- MIC (Pseudomonas aeruginosa [6]): 121 µM
- MIC (Acinetobacter baumannii): 121 µM
- MIC (Pseudomonas aeruginosa [7]): 121 µM
- MIC (Escherichia coli [8]): 121 µM
- solubility [9]: 2340 µM

Structure (SMILES): COc1ccc2cc3[n+](cc2c1OCC(O)CN(CCO)CCO)CCc1cc2c(cc1-3)OCO2.[Br-] (centres undefined)
- MIC (Staphylococcus aureus [1]): 57 µM
- MIC (Enterococcus faecalis): 114 µM
- MIC (Staphylococcus aureus [2]): 14 µM
- MIC (Staphylococcus aureus [3]): 227 µM
- MIC (Staphylococcus aureus [4]): 28 µM
- MIC (Klebsiella pneumoniae): 227 µM
- MIC (Escherichia coli [5]): 114 µM
- MIC (Pseudomonas aeruginosa [6]): 114 µM
- MIC (Acinetobacter baumannii): 114 µM
- MIC (Pseudomonas aeruginosa [7]): 114 µM
- MIC (Escherichia coli [8]): 114 µM
- solubility [9]: 4240 µM

Structure (SMILES): COc1ccc2cc3[n+](cc2c1OCC(O)Cn1ccnc1)CCc1cc2c(cc1-3)OCO2.[Br-] (centres undefined)
- MIC (Staphylococcus aureus [1]): 61 µM
- MIC (Enterococcus faecalis): 124 µM
- MIC (Staphylococcus aureus [2]): 124 µM
- MIC (Staphylococcus aureus [3]): 124 µM
- MIC (Staphylococcus aureus [4]): 124 µM
- MIC (Klebsiella pneumoniae): 61 µM
- MIC (Escherichia coli [5]): 61 µM
- MIC (Pseudomonas aeruginosa [6]): 124 µM
- MIC (Acinetobacter baumannii): 61 µM
- MIC (Pseudomonas aeruginosa [7]): 124 µM
- MIC (Escherichia coli [8]): 124 µM
- solubility [9]: 1800 µM

Structure (SMILES): COc1ccc2cc3[n+](cc2c1OCC(O)CN1CCCCC1)CCc1cc2c(cc1-3)OCO2.[Br-] (centres undefined)
- MIC (Staphylococcus aureus [1]): 59 µM
- MIC (Enterococcus faecalis): 118 µM
- MIC (Staphylococcus aureus [2]): 118 µM
- MIC (Staphylococcus aureus [3]): 236 µM
- MIC (Staphylococcus aureus [4]): 236 µM
- MIC (Klebsiella pneumoniae): 236 µM
- MIC (Escherichia coli [5]): 118 µM
- MIC (Pseudomonas aeruginosa [6]): 118 µM
- MIC (Acinetobacter baumannii): 118 µM
- MIC (Pseudomonas aeruginosa [7]): 236 µM
- MIC (Escherichia coli [8]): 236 µM
- solubility [9]: 2000 µM

Structure (SMILES): COc1ccc2cc3[n+](cc2c1OCC(O)Cn1cnc2ccccc21)CCc1cc2c(cc1-3)OCO2.[Br-] (centres undefined)
- MIC (Staphylococcus aureus [1]): 56 µM
- MIC (Enterococcus faecalis): 56 µM
- MIC (Staphylococcus aureus [2]): 111 µM
- MIC (Staphylococcus aureus [3]): 56 µM
- MIC (Staphylococcus aureus [4]): 56 µM
- MIC (Klebsiella pneumoniae): 56 µM
- MIC (Escherichia coli [5]): 28 µM
- MIC (Pseudomonas aeruginosa [6]): 111 µM
- MIC (Acinetobacter baumannii): 56 µM
- MIC (Pseudomonas aeruginosa [7]): 56 µM
- MIC (Escherichia coli [8]): 56 µM
- solubility [9]: 1720 µM

Structure (SMILES): COc1ccc2cc3[n+](cc2c1OCC(O)Cn1cnnc1)CCc1cc2c(cc1-3)OCO2.[Br-] (centres undefined)
- MIC (Staphylococcus aureus [1]): 243 µM
- MIC (Enterococcus faecalis): 243 µM
- MIC (Staphylococcus aureus [2]): 243 µM
- MIC (Staphylococcus aureus [3]): 243 µM
- MIC (Staphylococcus aureus [4]): 243 µM
- MIC (Klebsiella pneumoniae): 121 µM
- MIC (Escherichia coli [5]): 121 µM
- MIC (Pseudomonas aeruginosa [6]): 243 µM
- MIC (Acinetobacter baumannii): 243 µM
- MIC (Pseudomonas aeruginosa [7]): 121 µM
- MIC (Escherichia coli [8]): 243 µM
- solubility [9]: 1100 µM

Structure (SMILES): COc1ccc2cc3[n+](cc2c1OCC(O)Cn1cnc2cc(Br)ccc21)CCc1cc2c(cc1-3)OCO2.[Br-] (centres undefined)
- MIC (Staphylococcus aureus [1]): 24 µM
- MIC (Enterococcus faecalis): 98 µM
- MIC (Staphylococcus aureus [2]): 98 µM
- MIC (Staphylococcus aureus [3]): 98 µM
- MIC (Staphylococcus aureus [4]): 98 µM
- MIC (Klebsiella pneumoniae): 24 µM
- MIC (Escherichia coli [5]): 49 µM
- MIC (Pseudomonas aeruginosa [6]): 98 µM
- MIC (Acinetobacter baumannii): 98 µM
- MIC (Pseudomonas aeruginosa [7]): 98 µM
- MIC (Escherichia coli [8]): 98 µM
- solubility [9]: 774 µM

Structure (SMILES): COc1ccc2cc3[n+](cc2c1OCC(O)Cn1nnc2ccccc21)CCc1cc2c(cc1-3)OCO2.[Br-] (centres undefined)
- MIC (Staphylococcus aureus [1]): 111 µM
- MIC (Enterococcus faecalis): 111 µM
- MIC (Staphylococcus aureus [2]): 111 µM
- MIC (Staphylococcus aureus [3]): 55 µM
- MIC (Staphylococcus aureus [4]): 55 µM
- MIC (Klebsiella pneumoniae): 111 µM
- MIC (Escherichia coli [5]): 111 µM
- MIC (Pseudomonas aeruginosa [6]): 111 µM
- MIC (Acinetobacter baumannii): 111 µM
- MIC (Pseudomonas aeruginosa [7]): 111 µM
- MIC (Escherichia coli [8]): 111 µM
- solubility [9]: 1720 µM

Structure (SMILES): COc1ccc2cc3[n+](cc2c1OCC(O)CSc1nc2ccccc2[nH]1)CCc1cc2c(cc1-3)OCO2.[Br-] (centres undefined)
- MIC (Staphylococcus aureus [1]): 53 µM
- MIC (Enterococcus faecalis): 53 µM
- MIC (Staphylococcus aureus [2]): 105 µM
- MIC (Staphylococcus aureus [3]): 53 µM
- MIC (Staphylococcus aureus [4]): 53 µM
- MIC (Klebsiella pneumoniae): 53 µM
- MIC (Escherichia coli [5]): 53 µM
- MIC (Pseudomonas aeruginosa [6]): 105 µM
- MIC (Acinetobacter baumannii): 26 µM
- MIC (Pseudomonas aeruginosa [7]): 53 µM
- MIC (Escherichia coli [8]): 105 µM
- solubility [9]: 783 µM

Structure (SMILES): COc1ccc2cc3[n+](cc2c1OCC(O)CN1CCNCC1)CCc1cc2c(cc1-3)OCO2.[Br-] (centres undefined)
- MIC (Staphylococcus aureus [1]): 59 µM
- MIC (Enterococcus faecalis): 118 µM
- MIC (Staphylococcus aureus [2]): 118 µM
- MIC (Staphylococcus aureus [3]): 235 µM
- MIC (Staphylococcus aureus [4]): 118 µM
- MIC (Klebsiella pneumoniae): 15 µM
- MIC (Escherichia coli [5]): 118 µM
- MIC (Pseudomonas aeruginosa [6]): 15 µM
- MIC (Acinetobacter baumannii): 118 µM
- MIC (Pseudomonas aeruginosa [7]): 118 µM
- MIC (Escherichia coli [8]): 235 µM
- solubility [9]: 3810 µM

Structure (SMILES): COc1ccc2cc3[n+](cc2c1OCC(O)Cn1cnc2cc([N+](=O)[O-])ccc21)CCc1cc2c(cc1-3)OCO2.[Br-] (centres undefined)
- MIC (Staphylococcus aureus [1]): 103 µM
- MIC (Enterococcus faecalis): 51 µM
- MIC (Staphylococcus aureus [2]): 103 µM
- MIC (Staphylococcus aureus [3]): 26 µM
- MIC (Staphylococcus aureus [4]): 51 µM
- MIC (Klebsiella pneumoniae): 103 µM
- MIC (Escherichia coli [5]): 51 µM
- MIC (Pseudomonas aeruginosa [6]): 103 µM
- MIC (Acinetobacter baumannii): 103 µM
- MIC (Pseudomonas aeruginosa [7]): 26 µM
- MIC (Escherichia coli [8]): 103 µM
- solubility [9]: 895 µM

Structure (SMILES): COc1ccc2cc3[n+](cc2c1OC)CCc1cc2c(cc1-3)OCO2 [BERBERINE]
- MIC (Staphylococcus aureus [1]): 689 µM
- MIC (Enterococcus faecalis): 344 µM
- MIC (Staphylococcus aureus [2]): 344 µM
- MIC (Staphylococcus aureus [3]): 344 µM
- MIC (Staphylococcus aureus [4]): 172 µM
- MIC (Klebsiella pneumoniae): 172 µM
- MIC (Escherichia coli [5]): 344 µM
- MIC (Pseudomonas aeruginosa [6]): 344 µM
- MIC (Acinetobacter baumannii): 1380 µM
- MIC (Pseudomonas aeruginosa [7]): 344 µM
- MIC (Escherichia coli [8]): 172 µM
- solubility [9]: 751 µM

Structure (SMILES): COc1ccc2cc3[n+](cc2c1OCC(O)CSc1nccn1C)CCc1cc2c(cc1-3)OCO2.[Br-] (centres undefined)
- MIC (Staphylococcus aureus [1]): 56 µM
- MIC (Enterococcus faecalis): 56 µM
- MIC (Staphylococcus aureus [2]): 112 µM
- MIC (Staphylococcus aureus [3]): 56 µM
- MIC (Staphylococcus aureus [4]): 112 µM
- MIC (Klebsiella pneumoniae): 112 µM
- MIC (Escherichia coli [5]): 28 µM
- MIC (Pseudomonas aeruginosa [6]): 112 µM
- MIC (Acinetobacter baumannii): 56 µM
- MIC (Pseudomonas aeruginosa [7]): 112 µM
- MIC (Escherichia coli [8]): 112 µM
- solubility [9]: 791 µM

Structure (SMILES): CCN(CC)CC(O)COc1c(OC)ccc2cc3[n+](cc12)CCc1cc2c(cc1-3)OCO2.[Br-] (centres undefined)
- MIC (Staphylococcus aureus [1]): 60 µM
- MIC (Enterococcus faecalis): 120 µM
- MIC (Staphylococcus aureus [2]): 60 µM
- MIC (Staphylococcus aureus [3]): 120 µM
- MIC (Staphylococcus aureus [4]): 60 µM
- MIC (Klebsiella pneumoniae): 241 µM
- MIC (Escherichia coli [5]): 241 µM
- MIC (Pseudomonas aeruginosa [6]): 60 µM
- MIC (Acinetobacter baumannii): 60 µM
- MIC (Pseudomonas aeruginosa [7]): 60 µM
- MIC (Escherichia coli [8]): 120 µM
- solubility [9]: 3320 µM

Structure (SMILES): COc1ccc2cc3[n+](cc2c1OCC(O)CSc1nnnn1C)CCc1cc2c(cc1-3)OCO2.[Br-] (centres undefined)
- MIC (Staphylococcus aureus [1]): 56 µM
- MIC (Enterococcus faecalis): 56 µM
- MIC (Staphylococcus aureus [2]): 111 µM
- MIC (Staphylococcus aureus [3]): 56 µM
- MIC (Staphylococcus aureus [4]): 111 µM
- MIC (Klebsiella pneumoniae): 111 µM
- MIC (Escherichia coli [5]): 28 µM
- MIC (Pseudomonas aeruginosa [6]): 111 µM
- MIC (Acinetobacter baumannii): 56 µM
- MIC (Pseudomonas aeruginosa [7]): 111 µM
- MIC (Escherichia coli [8]): 111 µM
- solubility [9]: 992 µM
